According to patent publication US9593108B2, “Compounds and methods for antiviral treatment” (PTC Therapeutics, Inc., priority 2009, dated 2017):

How the values were obtained:
[1] = system: HCV replicon RNA (GenBank Accession No. AJ242654); assay: HCV Replicon Assay (replicon RNA reduction and/or Fluc reporter signal); type: cell-based, Hepatitis C virus; conditions: Hepatitis C virus, 72 h, replicon-containing cells cultured with test compound for up to 3 days
Method in brief: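 IC50 values mostly reflect the drop in replicon RNA, though Fluc reporter signal may also be used. Compound incubated with cells carrying the bicistronic replicon for as long as 3 days; interferon served as positive control.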

SMILES | IC50 [1] [nM] | melting point [°C]
Cc1cnc2c(C#N)c(-c3ccc(S(=O)(=O)N[C@@H](C)C(F)(F)F)cc3)n(C3CCCC3)c2c1 [Cpd 180, 4-(3-cyano-1-cyclopentyl-6-methyl-1H-pyrrolo[3,2-b]pyridin-2-yl)-N-[(2S)-1,1,1-trifluoropropan-2-yl]benzenesulfonamide] | 500 to 2000 | 278 to 279
Cc1cnc2c(C#N)c(-c3ccc(S(=O)(=O)N[C@H](C)C(F)(F)F)cc3)n(C3CCCC3)c2c1 [Cpd 181, 4-(3-cyano-1-cyclopentyl-6-methyl-1H-pyrrolo[3,2-b]pyridin-2-yl)-N-[(2R)-1,1,1-trifluoropropan-2-yl]benzenesulfonamide] | < 500 | 281 to 283
CCc1cnc2c(c1)c(C#N)c(-c1ccc(S(=O)(=O)NC(C)(C)C(F)(F)F)cc1)n2C1CCC1 [Cpd 182, 4-(3-cyano-1-cyclobutyl-5-ethyl-1H-pyrrolo[2,3-b]pyridin-2-yl)-N-(1,1,1-trifluoro-2-methylpropan-2-yl)benzenesulfonamide] | < 500 | 190 to 195
CCc1cnc2c(c1)c(C#N)c(-c1ccc(S(=O)(=O)NC3(C(F)(F)F)CC3)cc1)n2C1CCC1 [Cpd 183, 4-(3-cyano-1-cyclobutyl-5-ethyl-1H-pyrrolo[2,3-b]pyridin-2-yl)-N-[1-(trifluoromethyl)cyclopropyl]benzenesulfonamide] | 500 to 2000 | 161 to 168
CCc1cnc2c(c1)c(C#N)c(-c1ccc(S(=O)(=O)NC3(C(F)(F)F)CC3)cn1)n2C1CCC1 [Cpd 184, 6-(3-cyano-1-cyclobutyl-5-ethyl-1H-pyrrolo[2,3-b]pyridin-2-yl)-N-[1-(trifluoromethyl)cyclopropyl]pyridine-3-sulfonamide] | < 500 | 216 to 221
CCc1cnc2c(c1)c(C#N)c(-c1ccc(S(=O)(=O)NC(C)(C)C)cc1)n2C1CCC1 [Cpd 185, N-tert-butyl-4-(3-cyano-1-cyclobutyl-5-ethyl-1H-pyrrolo[2,3-b]pyridin-2-yl)benzenesulfonamide] | < 500 | 190 to 196
CCc1cnc2c(c1)c(C#N)c(-c1ccc(S(=O)(=O)NC3(C)CC3)cc1)n2C1CCC1 [Cpd 187, 4-(3-cyano-1-cyclobutyl-5-ethyl-1H-pyrrolo[2,3-b]pyridin-2-yl)-N-(1-methylcyclopropyl)benzenesulfonamide] | < 500 | 157 to 163
CCc1cnc2c(c1)c(C#N)c(-c1ccc(S(=O)(=O)NC(CF)CF)cc1)n2C1CCC1 [Cpd 190, 4-(3-cyano-1-cyclobutyl-5-ethyl-1H-pyrrolo[2,3-b]pyridin-2-yl)-N-(1,3-difluoropropan-2-yl)benzenesulfonamide] | < 500 | 165 to 171
CCc1cnc2c(c1)c(C#N)c(-c1ccc(S(=O)(=O)NC(CF)CF)cn1)n2C1CCC1 [Cpd 191, 6-(3-cyano-1-cyclobutyl-5-ethyl-1H-pyrrolo[2,3-b]pyridin-2-yl)-N-(1,3-difluoropropan-2-yl)pyridine-3-sulfonamide] | 500 to 2000 | 157 to 165
CCc1cnc2c(c1)c(C#N)c(-c1ccc(S(=O)(=O)NC3CCC3)cn1)n2C1CCC1 [Cpd 194, 6-(3-cyano-1-cyclobutyl-5-ethyl-1H-pyrrolo[2,3-b]pyridin-2-yl)-N-cyclobutylpyridine-3-sulfonamide] | < 500 | 168 to 177
CCc1cnc2c(c1)c(C#N)c(-c1ccc(S(=O)(=O)NC(C)C)nc1)n2C1CCC1 [Cpd 195, 5-(3-cyano-1-cyclobutyl-5-ethyl-1H-pyrrolo[2,3-b]pyridin-2-yl)-N-(propan-2-yl)pyridine-2-sulfonamide] | < 500 | 195 to 202
CCc1cnc2c(c1)c(C#N)c(-c1ncc(S(=O)(=O)NC(C)C)cn1)n2C1CCC1 [Cpd 196, 2-(3-cyano-1-cyclobutyl-5-ethyl-1H-pyrrolo[2,3-b]pyridin-2-yl)-N-(propan-2-yl)pyrimidine-5-sulfonamide] | < 500 | 170 to 178
C[C@@H](NS(=O)(=O)c1ccc(-c2c(C#N)c3cc(OC(F)F)cnc3n2C2CCC2)nc1)C(F)(F)F [Cpd 197, 6-[3-cyano-1-cyclobutyl-5-(difluoromethoxy)-1H-pyrrolo[2,3-b]pyridin-2-yl]-N-[(2R)-1,1,1-trifluoropropan-2-yl]pyridine-3-sulfonamide] | < 500 | 149 to 151
C[C@H](NS(=O)(=O)c1ccc(-c2c(C#N)c3cc(OC(F)F)cnc3n2C2CCC2)cc1)C(F)(F)F [Cpd 198, 4-[3-cyano-1-cyclobutyl-5-(difluoromethoxy)-1H-pyrrolo[2,3-b]pyridin-2-yl]-N-[(2S)-1,1,1-trifluoropropan-2-yl]benzenesulfonamide] | 500 to 2000 | 155 to 156
C[C@@H](NS(=O)(=O)c1ccc(-c2c(C#N)c3cc(OC(F)F)cnc3n2C2CCC2)cc1)C(F)(F)F [Cpd 199, 4-[3-cyano-1-cyclobutyl-5-(difluoromethoxy)-1H-pyrrolo[2,3-b]pyridin-2-yl]-N-[(2R)-1,1,1-trifluoropropan-2-yl]benzenesulfonamide] | < 500 | 199 to 200
CC(C)(NS(=O)(=O)c1ccc(-c2c(C#N)c3cc(OC(F)F)cnc3n2C2CCC2)nc1)C(F)(F)F [Cpd 201, 6-[3-cyano-1-cyclobutyl-5-(difluoromethoxy)-1H-pyrrolo[2,3-b]pyridin-2-yl]-N-(1,1,1-trifluoro-2-methylpropan-2-yl)pyridine-3-sulfonamide] | < 500 | 168 to 169
CCOc1cnc2c(c1)c(C#N)c(-c1ccc(S(=O)(=O)N[C@@H](C)C(F)(F)F)cn1)n2C1CCC1 [Cpd 202, 6-(3-cyano-1-cyclobutyl-5-ethoxy-1H-pyrrolo[2,3-b]pyridin-2-yl)-N-[(2S)-1,1,1-trifluoropropan-2-yl]pyridine-3-sulfonamide] | < 500 | 181 to 182
CCOc1cnc2c(c1)c(C#N)c(-c1ccc(S(=O)(=O)N[C@H](C)C(F)(F)F)cn1)n2C1CCC1 [Cpd 203, 6-(3-cyano-1-cyclobutyl-5-ethoxy-1H-pyrrolo[2,3-b]pyridin-2-yl)-N-[(2R)-1,1,1-trifluoropropan-2-yl]pyridine-3-sulfonamide] | < 500 | 180 to 181
CCCOc1cnc2c(c1)c(C#N)c(-c1ccc(S(=O)(=O)N[C@@H](C)C(F)(F)F)cn1)n2C1CCC1 [Cpd 204, 6-(3-cyano-1-cyclobutyl-5-propoxy-1H-pyrrolo[2,3-b]pyridin-2-yl)-N-[(2S)-1,1,1-trifluoropropan-2-yl]pyridine-3-sulfonamide] | < 500 | 170 to 171
CCCOc1cnc2c(c1)c(C#N)c(-c1ccc(S(=O)(=O)N[C@H](C)C(F)(F)F)cn1)n2C1CCC1 [Cpd 205, 6-(3-cyano-1-cyclobutyl-5-propoxy-1H-pyrrolo[2,3-b]pyridin-2-yl)-N-[(2R)-1,1,1-trifluoropropan-2-yl]pyridine-3-sulfonamide] | < 500 | 169 to 170
Cc1cnc2c(C#N)c(-c3ccc(S(=O)(=O)N[C@@H](C)C(F)(F)F)cn3)n(C3CCC3)c2c1 [Cpd 206, 6-(3-cyano-1-cyclobutyl-6-methyl-1H-pyrrolo[3,2-b]pyridin-2-yl)-N-[(2S)-1,1,1-trifluoropropan-2-yl]pyridine-3-sulfonamide] | 500 to 2000 | 217 to 218
Cc1cnc2c(C#N)c(-c3ccc(S(=O)(=O)N[C@H](C)C(F)(F)F)cn3)n(C3CCC3)c2c1 [Cpd 207, 6-(3-cyano-1-cyclobutyl-6-methyl-1H-pyrrolo[3,2-b]pyridin-2-yl)-N-[(2R)-1,1,1-trifluoropropan-2-yl]pyridine-3-sulfonamide] | 500 to 2000 | 207 to 209
Cc1cnc2c(C#N)c(-c3ccc(S(=O)(=O)NC4(C(F)(F)F)CC4)cn3)n(C3CCC3)c2c1 [Cpd 208, 6-(3-cyano-1-cyclobutyl-6-methyl-1H-pyrrolo[3,2-b]pyridin-2-yl)-N-[1-(trifluoromethyl)cyclopropyl]pyridine-3-sulfonamide] | < 500 | 248 to 249
Cc1cnc2c(C#N)c(-c3ccc(S(=O)(=O)NC(C)(C)C(F)(F)F)cn3)n(C3CCC3)c2c1 [Cpd 209, 6-(3-cyano-1-cyclobutyl-6-methyl-1H-pyrrolo[3,2-b]pyridin-2-yl)-N-(1,1,1-trifluoro-2-methylpropan-2-yl)pyridine-3-sulfonamide] | < 500 | 238 to 240
Cc1cnc2c(C#N)c(-c3ccc(S(=O)(=O)NC4(C)CC4)cn3)n(C3CCC3)c2c1 [Cpd 210, 6-(3-cyano-1-cyclobutyl-6-methyl-1H-pyrrolo[3,2-b]pyridin-2-yl)-N-(1-methylcyclopropyl)pyridine-3-sulfonamide] | < 500 | 187 to 188
Cc1cnc2c(C#N)c(-c3ccc(S(=O)(=O)NC(C)(C)C)cn3)n(C3CCC3)c2c1 [Cpd 211, N-tert-butyl-6-(3-cyano-1-cyclobutyl-6-methyl-1H-pyrrolo[3,2-b]pyridin-2-yl)pyridine-3-sulfonamide] | < 500 | 227 to 229
Cc1cnc2c(C#N)c(-c3ccc(S(=O)(=O)NC(CF)CF)cn3)n(C3CCC3)c2c1 [Cpd 212, 6-(3-cyano-1-cyclobutyl-6-methyl-1H-pyrrolo[3,2-b]pyridin-2-yl)-N-(1,3-difluoropropan-2-yl)pyridine-3-sulfonamide] | < 500 | 219 to 221
Cc1cnc2c(C#N)c(-c3ncc(S(=O)(=O)NC(CF)CF)cn3)n(C3CCC3)c2c1 [Cpd 213, 2-(3-cyano-1-cyclobutyl-6-methyl-1H-pyrrolo[3,2-b]pyridin-2-yl)-N-(1,3-difluoropropan-2-yl)pyrimidine-5-sulfonamide] | < 500 | 269 to 271
